{
  "source": "patent US12319736B2",
  "about": "“Combination of antibody-drug conjugate and immune checkpoint inhibitor” (DAIICHI SANKYO COMPANY, LIMITED, priority 2016, dated 2025)",
  "key": {"[1]": {"test_system": "bone marrow-derived dendritic cells", "assay": "Effect on in vitro dendritic cells, flow cytometry (Evaluation Example 5)", "assay_type": "cell-based, mouse", "settings": "0.0625-1 μM, 24 hours, compared with DMSO", "method": "BALB/c mice were euthanized, and bone marrow cells were then separated from each femur, and cultured with an RPMI 1640 medium containing 10% FBS, 55 μM 2-mercaptoethanol, 100 U/mL penicillin, […], 1 mM sodium pyruvate, 1×non-essential amino acid, 2 mM L-glutamine, and 10 ng/mL mouse GM-CSF for 11 days to induce bone marrow-derived dendritic cells. To the culture solution for the induced dendritic cells, the compound (A) was added to a concentration of 0.0625 μM, 0.125 μM, 0.25 μM, 0.5 μM, or 1 μM. For a control, DMSO in a quantity equal to that of the compound (A) was added. After 24 hours, staining was performed by using a Pacific Blue labeled anti-mouse CD45 Antibody (103126, BioLegend), PE labeled anti-mouse CD86 (B7-2) (553692, Becton Dickinson), APC labeled anti-mouse CD11c (550261, Becton Dickinson), and FITC labeled anti-mouse MHC Class II (I-A/I-E) (11-5321-85, Thermo Fisher Scientific), and analysis was performed by using an FACS Canto II. Dead cells had been stained with a LIVE/DEAD Fixable Near-IR Dead Cell Stain Kit purchased from Thermo Fisher Scientific, and excluded from the analysis."}, "CT26.WT-hHER2 cells [2]": {"test_system": "CT26.WT-hHER2 cells", "assay": "Analysis of in vitro cancer cells treated with different compounds, MHC class I (Evaluation Example 17)", "assay_type": "cell-based, mouse", "settings": "20 nM, 100 nM, 500 nM; vs control group, Dunnett's test; agents: compound (A), DM1-SMe, DM4-SMe, MMAE", "method": "(§1) To culture solution for CT26.WT-hHER2 cells, the compound (A) was added to a concentration of 0.0625 μM, 0.125 μM, 0.25 μM, 0.5 μM, or 1 μM. For a control, DMSO in a quantity equal to that of the compound (A) was added. After 24 hours, staining was performed by using PE labeled anti-human Her2/neu (340552, Becton Dickinson) and FITC labeled anti-mouse H-2Dd (110606, BioLegend), and expression levels of MHC class I on cancer cells were determined with flow cytometry. Dead cells had been stained with a LIVE/DEAD Fixable Near-IR Dead Cell Stain Kit purchased from Thermo Fisher Scientific, and excluded from the analysis. The mean fluorescence intensity (MFI) of MHC class I was calculated, and MFI for cells treated with an Isotype control was subtracted from the MFI for stained cells, and the resulting value was used as adjusted MFI. Comparison between the control group and the compound (A) group was performed by using Dunnett's test, P values were expressed as numerical values to the fourth decimal place, and values of P<0.05 (two-tailed test) were regarded as significant differences.\nExpression levels of MHC class I were determined for cancer cells treated with different compounds. […]"}, "topoisomerase I": {"target": "T1, topoisomerase I (Homo sapiens, UniProt P11387)", "T1 sequence (P11387 1-765)": "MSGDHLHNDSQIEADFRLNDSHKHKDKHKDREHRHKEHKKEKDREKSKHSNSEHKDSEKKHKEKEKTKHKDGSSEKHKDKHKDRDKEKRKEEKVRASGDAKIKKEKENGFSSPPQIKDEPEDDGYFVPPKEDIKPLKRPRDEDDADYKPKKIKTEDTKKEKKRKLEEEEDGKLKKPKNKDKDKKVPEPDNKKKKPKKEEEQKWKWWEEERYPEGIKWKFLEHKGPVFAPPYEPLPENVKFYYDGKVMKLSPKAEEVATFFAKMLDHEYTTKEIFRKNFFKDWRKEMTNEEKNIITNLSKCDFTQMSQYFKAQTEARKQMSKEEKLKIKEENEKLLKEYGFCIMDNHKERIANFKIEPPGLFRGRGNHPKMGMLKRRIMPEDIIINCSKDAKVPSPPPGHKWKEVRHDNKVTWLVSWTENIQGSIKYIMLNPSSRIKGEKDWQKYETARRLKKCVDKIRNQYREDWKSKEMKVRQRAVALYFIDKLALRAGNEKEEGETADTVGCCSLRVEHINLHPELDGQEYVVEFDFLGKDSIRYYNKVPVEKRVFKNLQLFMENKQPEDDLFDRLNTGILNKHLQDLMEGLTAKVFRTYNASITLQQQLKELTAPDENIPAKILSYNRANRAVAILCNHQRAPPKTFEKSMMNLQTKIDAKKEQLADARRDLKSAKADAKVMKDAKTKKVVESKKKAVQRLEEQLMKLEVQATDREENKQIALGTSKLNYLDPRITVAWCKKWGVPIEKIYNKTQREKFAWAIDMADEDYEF", "settings": "Ogitani Y. et al., Clinical Cancer Research 2016; cited from earlier work"}, "CT26.WT-hHER2 cells [3]": {"test_system": "CT26.WT-hHER2 cells", "assay": "Analysis of in vitro cancer cells, MHC class I by flow cytometry (Evaluation Example 8)", "assay_type": "cell-based, mouse", "settings": "0.0625-1 μM, 24 hours, vs DMSO, Dunnett's test", "method": "as §1"}},
  "data": [
    {"smiles": "CC[C@@]1(O)C(=O)OCc2c1cc1n(c2=O)Cc2c-1nc1cc(F)c(C)c3c1c2[C@@H](NC(=O)CO)CC3", "note": "[compound (A)]", "values": [
      {"measurement": "expression level of CD86 on CD11c-positive cells", "setting": "[1]", "result": "elevated"},
      {"measurement": "expression level of MHC class II on CD11c-positive cells", "setting": "[1]", "result": "elevated"},
      {"measurement": "expression level of MHC class I on CT26.WT-hHER2 cells", "setting": "CT26.WT-hHER2 cells [2]", "result": "maximum elevation effect"},
      {"measurement": "topoisomerase I inhibitory effect", "setting": "topoisomerase I", "result": "confirmed to have a topoisomerase I inhibitory effect"},
      {"measurement": "expression level of MHC class I on CT26.WT-hHER2 cells (adjusted MFI)", "setting": "CT26.WT-hHER2 cells [3]", "result": "significantly elevated"}
    ]}
  ]
}
